From ChEMBL document CHEMBL6109139, “Rational Design of the First Dual Agonist at Trace Amine-Associated Receptor 1 and 5-HT2C Receptors Based on Binding Pocket Similarity for the Treatment of Schizophrenia and Alzheimer's Disease-Related Psychosis” (J Med Chem, 2025)

Assays:
[1] = target: T1, 5-hydroxytryptamine receptor 2C (Homo sapiens, UniProt P28335); assay: Agonist activity at recombinant human 5-HT2CR expressed in HEK293 cells incubated for 2 hrs by FLIPR calcium assay; type: functional, cell-based
T1 sequence (P28335 whole entry): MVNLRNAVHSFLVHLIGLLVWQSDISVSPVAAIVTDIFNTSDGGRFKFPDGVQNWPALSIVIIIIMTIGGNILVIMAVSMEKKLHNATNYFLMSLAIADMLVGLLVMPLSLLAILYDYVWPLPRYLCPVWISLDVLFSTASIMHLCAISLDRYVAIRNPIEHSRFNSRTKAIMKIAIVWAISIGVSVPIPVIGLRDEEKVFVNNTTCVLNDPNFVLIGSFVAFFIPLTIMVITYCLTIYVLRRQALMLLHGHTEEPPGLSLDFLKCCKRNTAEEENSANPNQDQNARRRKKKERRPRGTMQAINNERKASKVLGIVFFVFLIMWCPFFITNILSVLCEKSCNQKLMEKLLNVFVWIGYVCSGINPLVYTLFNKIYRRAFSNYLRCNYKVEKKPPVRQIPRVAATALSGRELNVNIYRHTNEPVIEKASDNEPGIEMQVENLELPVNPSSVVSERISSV

[2] = target: T2, 5-hydroxytryptamine receptor 2C (Homo sapiens) (UniProt P28335); assay: Agonist activity at recombinant human 5-HT2CR expressed in HEK293 cells incubated for 2 hrs by measuring maximum efficacy by FLIPR calcium assay relative to control; type: functional, cell-based; conditions: filed as agonist
T2 sequence (whole entry): T1 sequence (P28335 whole entry)

[3] = target: 5-hydroxytryptamine receptor 2C (Rattus norvegicus) (UniProt P08909); assay: Agonist activity at rat 5-HT2CR by measuring maximum efficacy relative to control; type: functional; conditions: filed as agonist
Sequence of 5-hydroxytryptamine receptor 2C (Rattus norvegicus) (P08909 whole entry): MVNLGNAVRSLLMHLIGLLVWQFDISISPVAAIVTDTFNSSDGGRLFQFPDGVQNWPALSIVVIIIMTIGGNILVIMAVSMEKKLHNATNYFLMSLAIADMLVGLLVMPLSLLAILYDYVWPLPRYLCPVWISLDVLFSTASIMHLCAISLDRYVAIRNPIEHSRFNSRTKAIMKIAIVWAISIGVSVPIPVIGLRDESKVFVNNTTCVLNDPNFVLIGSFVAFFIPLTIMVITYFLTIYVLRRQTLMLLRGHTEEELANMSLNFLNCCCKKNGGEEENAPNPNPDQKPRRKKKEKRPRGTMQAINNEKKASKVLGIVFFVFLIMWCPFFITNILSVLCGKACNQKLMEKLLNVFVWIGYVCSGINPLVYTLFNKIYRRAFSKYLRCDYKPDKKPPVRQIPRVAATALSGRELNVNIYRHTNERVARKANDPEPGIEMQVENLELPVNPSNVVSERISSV

[4] = target: 5-hydroxytryptamine receptor 7 (Homo sapiens, UniProt P34969); assay: Agonist activity at recombinant human 5-HT7 expressed in HEK293 cells by measuring maximum efficacy at 2 uM by FLIPR calcium assay relative to control; type: functional, cell-based; conditions: filed as agonist
Sequence of 5-hydroxytryptamine receptor 7 (P34969 whole entry): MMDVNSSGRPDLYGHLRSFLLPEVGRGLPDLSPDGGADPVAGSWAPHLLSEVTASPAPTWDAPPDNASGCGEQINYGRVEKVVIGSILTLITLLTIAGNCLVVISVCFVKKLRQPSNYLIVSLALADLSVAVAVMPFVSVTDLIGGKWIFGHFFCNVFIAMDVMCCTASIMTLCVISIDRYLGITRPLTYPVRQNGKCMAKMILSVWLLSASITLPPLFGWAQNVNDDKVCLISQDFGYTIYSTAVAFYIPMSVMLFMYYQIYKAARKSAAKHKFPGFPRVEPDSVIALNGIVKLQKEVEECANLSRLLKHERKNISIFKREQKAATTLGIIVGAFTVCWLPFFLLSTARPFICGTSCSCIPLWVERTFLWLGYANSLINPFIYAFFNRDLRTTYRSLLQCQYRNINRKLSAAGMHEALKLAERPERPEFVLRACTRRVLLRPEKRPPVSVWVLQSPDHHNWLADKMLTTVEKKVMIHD

D(2) dopamine receptor = D(2) dopamine receptor (Homo sapiens, UniProt P14416); assay: Antagonist activity at human D2S receptor expressed in Flp-In-CHO cells; type: cell-based
Sequence of D(2) dopamine receptor (P14416 whole entry): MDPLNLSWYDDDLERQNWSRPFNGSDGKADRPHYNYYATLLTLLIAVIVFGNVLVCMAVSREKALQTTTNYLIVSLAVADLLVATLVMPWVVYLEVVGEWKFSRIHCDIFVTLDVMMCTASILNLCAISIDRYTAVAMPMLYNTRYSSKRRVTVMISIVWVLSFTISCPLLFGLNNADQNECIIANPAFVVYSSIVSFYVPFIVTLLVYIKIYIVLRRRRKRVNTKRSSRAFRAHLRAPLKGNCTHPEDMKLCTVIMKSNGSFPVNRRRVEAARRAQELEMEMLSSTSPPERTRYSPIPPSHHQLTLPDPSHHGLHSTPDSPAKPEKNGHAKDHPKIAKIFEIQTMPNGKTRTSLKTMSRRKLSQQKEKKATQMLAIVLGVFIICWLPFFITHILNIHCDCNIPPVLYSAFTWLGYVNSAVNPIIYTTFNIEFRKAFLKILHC

[5] = target: Alpha-1A adrenergic receptor (Homo sapiens) (UniProt P35348); assay: Binding affinity to alpha 1A (unknown origin) at 10 uM by radioligand binding assay relative to control
Sequence of Alpha-1A adrenergic receptor (Homo sapiens) (P35348 whole entry): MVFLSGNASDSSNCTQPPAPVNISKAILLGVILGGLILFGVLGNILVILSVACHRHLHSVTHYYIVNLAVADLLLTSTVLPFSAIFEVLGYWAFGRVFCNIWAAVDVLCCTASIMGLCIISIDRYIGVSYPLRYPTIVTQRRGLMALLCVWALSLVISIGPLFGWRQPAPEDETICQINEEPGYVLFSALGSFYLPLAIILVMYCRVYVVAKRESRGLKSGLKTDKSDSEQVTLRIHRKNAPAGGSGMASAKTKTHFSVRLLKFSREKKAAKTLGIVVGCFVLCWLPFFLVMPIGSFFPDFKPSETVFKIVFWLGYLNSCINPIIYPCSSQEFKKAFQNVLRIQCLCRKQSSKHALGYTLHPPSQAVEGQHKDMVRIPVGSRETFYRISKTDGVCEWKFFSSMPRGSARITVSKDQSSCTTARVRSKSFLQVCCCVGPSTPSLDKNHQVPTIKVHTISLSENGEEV

[6] = target: Histamine H1 receptor (Homo sapiens) (UniProt P35367); assay: Binding affinity to H1 receptor (unknown origin) at 10 uM by radioligand binding assay relative to control
Sequence of Histamine H1 receptor (Homo sapiens) (P35367 whole entry): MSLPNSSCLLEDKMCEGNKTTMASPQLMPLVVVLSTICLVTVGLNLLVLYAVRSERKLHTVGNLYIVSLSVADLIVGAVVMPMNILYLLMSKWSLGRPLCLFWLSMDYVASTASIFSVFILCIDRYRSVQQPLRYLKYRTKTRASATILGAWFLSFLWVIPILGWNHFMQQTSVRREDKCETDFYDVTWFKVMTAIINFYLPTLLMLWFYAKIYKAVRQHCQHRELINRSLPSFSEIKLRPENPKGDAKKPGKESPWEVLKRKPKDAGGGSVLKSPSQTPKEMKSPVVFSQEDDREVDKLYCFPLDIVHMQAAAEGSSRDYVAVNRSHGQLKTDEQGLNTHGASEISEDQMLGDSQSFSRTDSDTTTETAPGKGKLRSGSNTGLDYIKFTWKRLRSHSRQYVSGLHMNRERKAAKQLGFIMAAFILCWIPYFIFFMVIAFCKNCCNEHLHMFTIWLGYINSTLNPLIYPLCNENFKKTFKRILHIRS

KCNQ1 = KCNQ1 (Homo sapiens, UniProt P51787); assay: Binding affinity to human KCNQ1 receptor at 10 uM by radioligand binding assay relative to control; conditions: read-out: Activity
Sequence of KCNQ1 (P51787 whole entry): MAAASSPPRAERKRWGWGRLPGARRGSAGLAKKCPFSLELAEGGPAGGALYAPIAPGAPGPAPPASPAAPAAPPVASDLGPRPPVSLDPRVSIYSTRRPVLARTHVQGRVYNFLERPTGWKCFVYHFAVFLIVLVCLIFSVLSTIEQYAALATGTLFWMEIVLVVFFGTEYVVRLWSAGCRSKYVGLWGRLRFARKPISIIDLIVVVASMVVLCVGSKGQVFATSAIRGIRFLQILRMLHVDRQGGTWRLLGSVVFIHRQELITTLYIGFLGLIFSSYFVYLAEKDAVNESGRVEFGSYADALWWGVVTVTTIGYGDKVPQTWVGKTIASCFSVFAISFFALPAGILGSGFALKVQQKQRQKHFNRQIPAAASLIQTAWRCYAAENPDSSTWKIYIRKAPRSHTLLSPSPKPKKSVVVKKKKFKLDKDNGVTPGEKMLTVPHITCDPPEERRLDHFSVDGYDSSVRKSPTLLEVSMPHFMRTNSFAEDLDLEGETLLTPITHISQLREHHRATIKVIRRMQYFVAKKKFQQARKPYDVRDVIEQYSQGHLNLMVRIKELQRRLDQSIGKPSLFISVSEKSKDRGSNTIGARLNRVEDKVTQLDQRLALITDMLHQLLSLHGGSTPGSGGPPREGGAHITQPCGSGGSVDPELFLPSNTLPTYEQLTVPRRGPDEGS

[7] = target: Delta-type opioid receptor (Homo sapiens) (UniProt P41143); assay: Binding affinity to op-delta receptor (unknown origin) at 10 uM by radioligand binding assay relative to control
Sequence of Delta-type opioid receptor (Homo sapiens) (P41143 whole entry): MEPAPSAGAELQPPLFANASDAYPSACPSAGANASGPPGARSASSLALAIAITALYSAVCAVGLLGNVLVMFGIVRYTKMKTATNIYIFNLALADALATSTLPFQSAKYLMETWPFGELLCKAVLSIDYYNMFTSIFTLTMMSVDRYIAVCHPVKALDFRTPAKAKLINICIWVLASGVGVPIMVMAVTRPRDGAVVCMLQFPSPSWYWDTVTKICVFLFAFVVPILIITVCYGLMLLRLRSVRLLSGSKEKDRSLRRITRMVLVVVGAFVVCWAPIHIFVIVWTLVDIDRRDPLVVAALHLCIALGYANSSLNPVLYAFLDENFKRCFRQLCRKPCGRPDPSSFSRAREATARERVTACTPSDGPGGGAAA

[8] = target: 3',5'-cyclic-AMP phosphodiesterase 4D (Homo sapiens) (UniProt Q08499); assay: Binding affinity to PDE4D2 receptor (unknown origin) at 10 uM by radioligand binding assay relative to control
Sequence of 3',5'-cyclic-AMP phosphodiesterase 4D (Homo sapiens) (Q08499 whole entry): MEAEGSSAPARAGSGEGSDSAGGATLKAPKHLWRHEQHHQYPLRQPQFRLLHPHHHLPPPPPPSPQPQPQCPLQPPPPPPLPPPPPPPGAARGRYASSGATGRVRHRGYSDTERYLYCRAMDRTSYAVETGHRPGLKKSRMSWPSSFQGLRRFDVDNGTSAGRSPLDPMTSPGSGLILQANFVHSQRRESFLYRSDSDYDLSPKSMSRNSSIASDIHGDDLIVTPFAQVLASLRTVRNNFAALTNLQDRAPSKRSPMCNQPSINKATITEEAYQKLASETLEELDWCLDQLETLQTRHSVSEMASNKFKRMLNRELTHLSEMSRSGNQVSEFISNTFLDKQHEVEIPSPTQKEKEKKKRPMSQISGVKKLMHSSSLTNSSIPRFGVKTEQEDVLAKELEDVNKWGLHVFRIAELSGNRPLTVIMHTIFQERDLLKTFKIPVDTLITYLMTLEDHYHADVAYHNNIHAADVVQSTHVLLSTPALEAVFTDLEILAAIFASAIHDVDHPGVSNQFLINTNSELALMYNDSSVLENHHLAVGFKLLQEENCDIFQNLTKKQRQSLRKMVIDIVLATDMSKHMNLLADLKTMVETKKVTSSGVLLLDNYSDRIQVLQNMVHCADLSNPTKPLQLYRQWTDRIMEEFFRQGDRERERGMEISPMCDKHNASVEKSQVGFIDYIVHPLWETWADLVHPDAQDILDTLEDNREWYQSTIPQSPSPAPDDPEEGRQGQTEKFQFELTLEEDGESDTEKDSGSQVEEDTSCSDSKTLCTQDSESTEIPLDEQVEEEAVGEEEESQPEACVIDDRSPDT

[9] = Mutagenicity in Salmonella typhimurium TA102 by Ames test; type: toxicity; conditions: salmonella enterica subsp. enterica serovar typhimurium
[10] = Cardiotoxicity in conscious cynomolgus monkey assessed as waveform abnormalities in leas-II ECG at 3.125 to 12.5 mg/kg, IG measured within 24 hrs by EcgAUTO analysis; type: toxicity, organism-based, Macaca fascicularis; conditions: in vivo, po, dose 3.125-12.5 mg/kg
[11] = Toxicity in Sprague-Dawley rat assessed as stereotypy 2.5 to 7.5 mg/kg, po administered once daily for 4 weeks; type: organism-based; conditions: in vivo, 672 h, dose 2.5-7.5 mg/kg
[12] = Toxicity in male Sprague-Dawley rat assessed as suppression of food consumption at 7.5 mg/kg, po administered once daily for 4 weeks and measured weekly twice; type: organism-based; conditions: in vivo, 672 h
[13] = Toxicity in male Sprague-Dawley rat assessed as suppression of body weight gain at 7.5 mg/kg, po administered once daily for 4 weeks and measured after 4 weeks; type: organism-based; conditions: in vivo, 1344 h, time 8 weeks
[14] = Toxicity in male Sprague-Dawley rat assessed as suppression of food consumption at 7.5 mg/kg, po administered once daily for 4 weeks and measured after 4 weeks; type: organism-based; conditions: in vivo, 1344 h, time 8 weeks
[15] = Toxicity in female Sprague-Dawley rat assessed as suppression of body weight gain at 7.5 mg/kg, po administered once daily for 4 weeks and measured weekly twice; type: organism-based; conditions: in vivo, 672 h
[16] = Toxicity in female Sprague-Dawley rat assessed as piloerection at 7.5 mg/kg, po administered once daily for 4 weeks; type: organism-based; conditions: in vivo, 672 h
[17] = Toxicity in male Sprague-Dawley rat assessed as piloerection at 7.5 mg/kg, po administered once daily for 4 weeks; type: organism-based; conditions: in vivo, 672 h
[18] = Toxicity in male Sprague-Dawley rat assessed as irritability at 2.5 mg/kg, po administered once daily for 4 weeks; type: organism-based; conditions: in vivo, 672 h
[19] = Toxicity in male Sprague-Dawley rat assessed as irritability at 7.5 mg/kg, po administered once daily for 4 weeks and measured after 4 weeks; type: organism-based; conditions: in vivo, 1344 h, time 8 weeks
[20] = Toxicity in male Sprague-Dawley rat assessed as change in hematology at 2.5 to 7.5 mg/kg, po administered once daily for 4 weeks and measured after 4 weeks; type: organism-based; conditions: in vivo, 1344 h, dose 2.5-7.5 mg/kg, time 8 weeks
[21] = Toxicity in female Sprague-Dawley rat assessed as change in bone marrow smears at 2.5 to 7.5 mg/kg, po administered once daily for 4 weeks and measured after 4 weeks; type: organism-based; conditions: in vivo, 1344 h, dose 2.5-7.5 mg/kg, time 8 weeks
[22] = Toxicity in male Sprague-Dawley rat assessed as corneal epithelial degeneration at 2.5 to 7.5 mg/kg, po administered once daily for 4 weeks and measured after 4 weeks; type: organism-based; conditions: in vivo, 1344 h, dose 2.5-7.5 mg/kg, time 8 weeks
[23] = Toxicity in female Beagle dog assessed as change in body weight at 0.75 to 2.5 mg/kg, IG administered once daily for 4 weeks and measured after 4 weeks; type: organism-based, Canis lupus familiaris; conditions: in vivo, po, 1344 h, dose 0.75-2.5 mg/kg, time 8 weeks
[24] = Toxicity in male Beagle dog assessed as change in food consumption at 0.75 to 2.5 mg/kg, IG administered once daily for 4 weeks and measured after 4 weeks; type: organism-based, Canis lupus familiaris; conditions: in vivo, po, 1344 h, dose 0.75-2.5 mg/kg, time 8 weeks
[25] = Toxicity in male Beagle dog assessed as change in blood pressure at 0.75 to 2.5 mg/kg, IG administered once daily for 4 weeks and measured after 4 weeks; type: organism-based, Canis lupus familiaris; conditions: in vivo, po, 1344 h, dose 0.75-2.5 mg/kg, time 8 weeks
[26] = Toxicity in male Beagle dog assessed as change in body temperature at 0.75 to 2.5 mg/kg, IG administered once daily for 4 weeks and measured after 4 weeks; type: organism-based, Canis lupus familiaris; conditions: in vivo, po, 1344 h, dose 0.75-2.5 mg/kg, time 8 weeks
[27] = Toxicity in female Beagle dog assessed as change in clinical chemistry at 0.75 to 2.5 mg/kg, IG administered once daily for 4 weeks and measured after 4 weeks; type: organism-based, Canis lupus familiaris; conditions: in vivo, po, 1344 h, dose 0.75-2.5 mg/kg, time 8 weeks
[28] = Toxicity in male Beagle dog assessed as change in bone marrow smears at 0.75 to 2.5 mg/kg, IG administered once daily for 4 weeks and measured after 4 weeks; type: organism-based, Canis lupus familiaris; conditions: in vivo, po, 1344 h, dose 0.75-2.5 mg/kg, time 8 weeks
[29] = Toxicity in female Beagle dog assessed as change in organ weight at 0.75 to 2.5 mg/kg, IG administered once daily for 4 weeks and measured after 4 weeks; type: organism-based, Canis lupus familiaris; conditions: in vivo, po, 1344 h, dose 0.75-2.5 mg/kg, time 8 weeks
[30] = Toxicity in female Beagle dog assessed as somnolence at 2.5 mg/kg, IG administered once daily for 4 weeks; type: organism-based, Canis lupus familiaris; conditions: in vivo, po, 672 h

## c1cc2c(s1)[C@@H]1CNCCN1CC2
[1]
  EC50: 246 nM
[2]
  Emax: 100%
[3]
  Emax: 108%
[4]
  Emax: 65.5%
D(2) dopamine receptor
  IC50: > 100000 nM
[5]
  Activity: 55%
[6]
  Activity: 6.65%
KCNQ1
  activity at 10 µM: 28.4%
[7]
  Activity: 15.4%
[8]
  Activity: 5.4%
[9]
  Activity: Non-toxic
[10]
  Activity: Non-toxic
[11]
  Activity: Non-toxic
[12]
  Activity: Toxic
[13]
  Activity: Toxic
[14]
  Activity: Non-toxic
[15]
  Activity: Toxic
[16]
  Activity: Toxic
[17]
  Activity: Toxic
[18]
  Activity: Toxic
[19]
  Activity: Non-toxic
[20]
  Activity: Non-toxic
[21]
  Activity: Non-toxic
[22]
  Activity: Non-toxic
[23]
  Activity: Non-toxic
[24]
  Activity: Non-toxic
[25]
  Activity: Non-toxic
[26]
  Activity: Non-toxic
[27]
  Activity: Non-toxic
[28]
  Activity: Non-toxic
[29]
  Activity: Non-toxic
[30]
  Activity: Toxic
